Data on 1 compound can be found in patent publication US9493460B2, “Diimide compounds” (UCL BUSINESS PLC, priority 2013, dated 2016).

Experiment [1] deals with 83 human genes involved in DNA damage signaling responses in Mia-PaCa2 cells. Briefly: qPCR array, DNA damage signaling response genes. The format is cell-based. The following applies: Mia-PaCa2 cells, data not shown. Here is the method: Following compound exposure, cells were washed twice in PBS, harvested by trypsinisation, collected by centrifugation (300 g, 5 min, 4° C.) and re-suspended in RLT buffer (Qiagen). Samples were homogenised using QIAshredder spin columns and stored at −80° C. prior to RNA extraction. Three biological replicates were performed on separate days.
The expression of (i) 83 key human genes involved in telomere replication and maintenance, and (ii) 83 human genes involved in DNA damage signaling responses, was assessed using PCR arrays (SABiosciences). Total RNA was extracted from approximately 1×10^7 Mia-PaCa2 cells treated for 24 h with compound 3d, using the RNeasy kit (Qiagen) with on-column DNaseI treatment to remove residual genomic DNA. The quality of the harvested RNA was confirmed by nanodrop spectroscopy and by analysis with a Human RT^2 RNA QC PCR Array. First-strand cDNA synthesis was performed with the RT^2 first strand kit and qPCR was carried out using the RT^2 qPCR master mix (Qiagen) using 0.5 μg total RNA per array plate in a Stratagene MX-3000P instrument (Agilent, USA). Relative gene expression was determined by the ΔΔCT method using the web-based RT^2 Profiler™ PCR Array Data Analysis software (SABiosciences). Data were normalized to the geometric mean of five housekeeping genes (RPLP10, β-actin, B2M, GAPDH and HPRT1).
Various quadruplex-stabilising agents are known to induce pronounced DNA damage responses. We therefore next assessed the effect of 3d on the transcription of genes associated with DNA damage response and repair pathways. For these pathways the effect of a cytotoxic dosage of 3d (160 nM) on Mia-PaCa2 cells was also tested to assess the correlation between compound-induced DNA damage and cell killing. […] The latter two groups appeared to reflect a dynamic switch in the cellular response from low-level growth inhibition up to 40 nM of 3d to cytostatic then cytotoxic effects at 80 nM and 160 nM respectively.
Instead the response was dominated by genes with roles in growth arrest and more general stress responses.

Experiment [2] concerns MiaPaCa2 (pancreatic) cells. Nature of the experiment: SRB growth inhibition assay, MiaPaCa2. The format is cell-based, human. An outline of the steps: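 Growth inhibition of MiaPaCa2 cells was measured by SRB staining after 96 h exposure to 2-fold serial dilutions of compound dissolved in DMSO. IC50 was derived from mean absorbance at 540 nm expressed as a percentage of untreated control wells.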

The subject of the next experiment is telomerase. Nature of the experiment: TRAP-LIG cellular telomerase activity assay. The experiment is classed as cell-based, human. The note with it: at the doses relevant to the IC50 values. Here is the method:
FIG. 1. Gel showing telomerase activity in MIA-Pa-Ca-2 cells treated with compound 3h after seven days of treatment. Lane 1; untreated cells, lanes 2-4; cells treated increasing concentrations of 3h. Telomerase activity was assessed using the TRAP-LIG assay as described in Materials and Methods. Compound concentrations are indicated. Neg; untreated cells, Pos; positive control. Neg: negative control with telomerase but no ligand.
Telomerase activity was determined using the TRAP-LIG assay, a modified telomere repeat amplification protocol that ensures that there is no carry-over of ligand into the second PCR step of the assay. Briefly, 1 μg of protein from untreated and treated cells were incubated with TS forward primer (0.1 μg of 5′-AAT CCG TCG AGC AGA GTT-3′) at 30° C. for 10 min to allow the initial elongation to take place. Elongated products were purified using the QIAquick nucleotide purification kit (Qiagen) according to the manufacturer's instructions. Eluted samples were freeze-dried and re-dissolved in PCR grade water. Re-dissolved PCR products were subjected to amplification in master mix containing ACX reverse primer (1 μM, 5′-GCG CGG [CTTACC]3 CTA ACC-3′), TS forward primer (0.1 μg), TRAP buffer, BSA (5 μg), 0.5 mM dNTPs, and 2U RedHot TAQ polymerase (ABgene, U.K.) for 35 cycles of 94° C. for 30 s, 61° C. for 1 min, and at 72° C. for 1 min. […]

A further experiment relates to Panc1 (pancreatic) cells. Nature of the experiment: SRB growth inhibition assay, 96 hr exposure, Panc1. The experiment is classed as cell-based, human. The following applies: Homo sapiens, PANC-1, 96 h exposure. Here is the method: Human cancer cell lines, MCF7 (breast), A549 (lung), Mia-PaCa2, PANC1 and HPAC (pancreatic), RCC4 and 786-0 renal, and the somatic human cell line WI-38 (lung fibroblast) were purchased from ATCC. Cell lines were maintained in appropriate medium supplemented with 10% foetal bovine serum (Invitrogen, UK), 2 mM L-glutamine (Invitrogen, Netherlands), and other components as specified by the suppliers. Cell lines were maintained at 37° C., 5% CO2 and routinely passaged. Drugs were dissolved in DMSO and filtered through 0.22 μm pore-size filter units before addition to cell line appropriate media. Cellular growth inhibition was measured using the sulforhodamine B (SRB) assay in 96 well plates as described previously.^1,2 Fifty percent inhibitory concentrations (IC50) were determined by taking the mean absorbance at 540 nm for each drug concentration expressed as a percentage of the absorbance of untreated control wells.
The anti-proliferative activity of the group of nine ND derivatives was assessed using the SRB assay following 96 h exposure to 2-fold serial dilutions of each compound (Table 2) in a panel of cancer cell lines together with a normal fibroblast line. […] In contrast the morpholine compounds all show sub-μM anti-proliferative activity in at least some of the cancer cell lines used and the two compounds 3d, 3h with n=3 —(CH2)n— linkers to the morpholine groups, show particularly potent activity in the Mia-PaCa2 and PANC1 pancreatic carcinoma and A549 lung adenocarcinoma cell lines (IC50 values of 10-20 nM).
Next a series of structural isomers were tested.

The test system of the next experiment is A549 (lung) cells. Nature of the experiment: SRB growth inhibition assay, 96 hr exposure, A549. The experiment is classed as cell-based, human. The note with it: Homo sapiens, A549, 96 h exposure. The method in brief:
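SRB growth inhibition was measured after 96 h exposure to 2-fold serial dilutions of compound, with cells maintained at 37 °C in 5% CO2 and medium containing 10% FBS. Absorbance at 540 nm was expressed as a percentage of untreated control wells. IC50 was derived from these values.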

SMILES strings stand for the structures. pIC50: −log10 of the molar value.

Take `CN1CCN(CCNc2cc3c4c(c(NCCN5CCN(C)CC5)cc5c4c2C(=O)N(CCCN2CCOCC2)C5=O)C(=O)N(CCCN2CCOCC2)C3=O)CC1` [Compound 3h, 4,9-bis((2-(4-methylpiperazin-1-yl)ethyl)amino)-2,7-bis(3-morpholinopropyl)benzo[lmn][3,8]phenanthroline-1,3,6,8(2H,7H)-tetraone]: the “induction of γ-H2AX” value in experiment [1] is reported as “do not appear to induce these particular changes”. For the same compound, the “selectivity for Mia-PaCa2 compared to the normal fibroblast line WI-38” value in experiment [2] is given as ~200 fold. Moreover, the pIC50 – broadly, −log10 of the IC50, conventionally taken in molar units – in experiment [2] (Homo sapiens, MIA PaCa-2, SRB assay, 96 h exposure, read-out: IC50 Mia-PaCa2) is 7.70 to 8.00; with Panc1 (pancreatic) cells, 7.70 to 8.00; in the experiment with A549 (lung) cells it was 7.70 to 8.00. The telomerase activity inhibition result in the experiment on telomerase is recorded as “not inhibitors of telomerase activity”.
